Source: patent US20080113956A1, “Substituted Porphyrins” (priority 1997, published 2008)

Key:
[1] = test system: DNA; test: SOD activity in vitro in the presence of DNA (DNA interaction); format: biochemical
Source text: The “ortho effect” also decreases the toxicity. It is well known that porphyrins, and particularly cationic porphyrins, interact with DNA and can act as DNA cleavers. This fact can be an issue in the use of metallo-porphyrins as anti-tumor drugs. The present mimetics avoid this interaction.
In order to maximize the decrease in toxicity due to interaction with DNA, two derivatives of the ortho compound have been prepared which carry four ethyl or four butyl groups (“4” and “5”, respectively).

[2] = Water solubility of the chloride salt; format: physicochemical; settings: micelles were not observed
Protocol: The same procedure described above was used. 0.92 mL of 1-iodobutane (100 eq) was added and the mixture stirred at 100° C. for 7 days. […] The elemental analysis was thus performed on the hexafluorophosphate salt (non-viscous). The chlorine salt is water-soluble (micelles were not observed). UV(H2O) of the chloride salt, ε454.0 1.21×10^5 M^−1cm^−1. Elemental analysis, calcd. For MnC56H60N8P5F30.H2O: C (40.94), H (3.80), N (6.82); found: C (41.15), H (4.35), N (6.52).

[3] = SOD-like activity in vitro (xanthine/xanthine oxidase, ferricytochrome c; McCord and Fridovich); format: biochemical; settings: Example VII
Protocol: (§1) SOD activity can be monitored in the presence and absence of EDTA using the method of McCord and Fridovich (J. Biol. Chem. 244:6049 (1969)). The efficacy of a mimetic can also be determined by measuring the effect of the mimetic on the aerobic growth of a SOD null E. coli strain versus a parental strain lacking the specific mutations. Specifically, parental E. coli (AB1157) and SOD null E. coli. (JI132) can be grown in M9 medium containing 0.2% casamino acids and 0.2% glucose at pH 7.0 and 37° C.; growth can be monitored in terms of turbidity followed at 700 nm.
The superoxide dismutase activity of the mimetics of the invention depends on a number of factors, including thermodynamic factors (eg the metal-centered redox-potential see FIG. 1)), and kinetic factors (eg electrostatic facilitation).
Superoxide dismuting activity. The SOD-like activities were measured using the xanthine/xanthine oxidase system as a source of O2^− and ferricytochrome c as its indicating scavenger (McCord et al, J. Biol. Chem. 244:6049 (1969)). O2— was produced at the rate of 1.2 μM per minute and reduction of ferricytochrome c was followed at 550 nm. Assays were conducted in presence of 0.1 mM EDTA in 0.05 M phosphate buffer (pH 7.8). Rate constants for the reaction of the compounds were based upon competition with […] cytochrome c, kcyt c=2.6×10^5 M^−1s^−1 (Butler et al, J. Biol. Chem. 257:10747 (1982)). All measurements were done at 25° C. Cytochrome c concentration was at least 10^3-fold higher than the concentrations of the SOD mimics and the rates were linear for at least two minutes, during which the compounds intercepted ˜100 equivalents of O2^−, thus confirming the catalytic nature of O2^− dismutation in presence of the mimics.
Superoxide dismuting activities. SOD-like activities were measured as described previously, based on competition with cytochrome c (McCord et al, J. Biol. Chem. 244:6049 (1969)). MnClxTE-2-PyP^5+ SOD-like activities are reported in Table 5, IC50 (M) representing the concentration for one unit of activity (or the concentration that causes 50% inhibition of cytochrome c reduction by O2^−) and kcat (M^−1s^−1) representing the rate constant for the superoxide dismutation reaction. The SOD-like activity per mole of MnCl4TE-2-PyP^5 is approximately 2-, 7- and 100-fold higher than MnOBTMPyP^4+, MnTM-2-PyP^5+ and MnTM-4PyP^5+, respectively (Faulkner et al, J. Biol. Chem. 269:23471 (1994); Batinic-Haberle et al, Arch. Biochem. Biophys. 343:225 (1997); Batinic-Haberle et al, J. Biol. Chem. 273:24521 (1998)). The SOD-like activity of MnCl4TE-2-PyP^5+ represents 20% of the activity of the Cu,Zn-SOD enzyme on a molar basis (40% per active site considering that the enzyme has two active sites) (Klug-Roth et al, J. Am. Chem. Soc. 95:2786 (1973)).

[4] = test system: SOD null E. coli (JI132); test: Aerobic growth of SOD null E. coli strain versus parental strain; format: cell-based
Protocol: FIG. 3. SOD activity in vivo (E. coli) of 1, 2, 3* and 4* (20 μM) in minimal medium (mixture of atropoisomers, JI=SOD deficient strain, AB parental strain).
as §1
The activity in vivo of the mimetics of the invention can be tested on an E. coli strain deleted of the genes coding for both the MnSOD and FeSOD. In this assay, the efficacy of a mimetic is determined by measuring the effect of the mimetic on the aerobic growth of a SOD null E. coli strain versus a parental strain. Specifically, parental E. coli (AB1157) and SOD null E. coli. (JI132) are grown in M9 medium containing 0.2% casamino acids and 0.2% glucose at pH 7.0 and 37° C.; growth is monitored in terms of turbidity followed at 700 nm.

[5] = Electrochemistry: metal-centered redox potential; format: physicochemical; settings: vs NHE; listed as 2
Protocol: Electrochemistry. The electrochemical characterization was performed as described previously on a Voltammetric Analyzer Model 600 (CH instrument) using a glassy carbon electrode (Ag/AgCl reference and Pt auxiliary electrodes), at 0.5 mM porphyrin, pH 7.8 (0.05 M phosphate buffer), 0.1 M NaCl. The potentials were standardized against potassium ferricyanide/potassium ferrocyanide couple (Batinic-Haberle et al, Arch. Biochem. Biophys. 343:225 (1997); Kolthof et al, J. Phys. Chem. 39:945 (1974)).
Electrochemistry. The metal-centered redox behavior of all metalloporphyrin products was reversible. The half-wave potentials (E^O1/2) were calculated as the average of the cathodic and anodic peaks and are given in mV vs NHE (Table 5). The average shift per chlorine is +55 mV (Table 5), which is in agreement with the values previously reported for H2TPP derivatives (between −50 and +70 mV) (Sen et al, Chem. Soc. Faraday Trans. 93:4281 (1997); Autret et al. J. Chem. Soc. Dalton Trans. 2793 (1996); Hariprasad et al, J. Chem. Soc. Dalton Trans. 3429 (1996); Tagliatesta et al, Inorg. Chem. 35:5570 (1996); Ghosh, J. Am. Chem. Soc. 117:4691 (1995); Takeuchi et al, J. Am. Chem. Soc. 116:9730 (1994); Binstead et al, Inorg. Chem. 30:1259 (1991); Giraudeau et al, J. Am. Chem. Soc. 101:3857 (1979)). This shift appears to be higher (˜+65 mV) between 0 and 1, and between 2 and 3 chlorines (Table 5). […] The manganese redox state of MnCl4TE-2-PyP^5 (E^O1/2=+448 mV) and MnOBTMPyP^4+ (E^O1.2=+480 mV) is 3+ and 2+, respectively. This difference may be explained by their difference in terms of redox potential (˜30 mV) but also by structural considerations, for instance an increased distortion of the porphyrin ring in the case of MnOBTMPyP^4+. (Batinic-Haberle et al, Arch. Biochem. Biophys. 343:225 (1997); Ochsenbein et al, Angew. Chem. Int. Ed. Engl. 33:348 (1994)).

solubility in water [2]	Compound	toxicity due to interaction with DNA, comparison between ortho derivatives ([1]; Table 2 and FIG. 3)	interaction with DNA ([1]; SOD activity in vitro in the presence of DNA)	rate of dismutation (kcat) [3] [M⁻¹ s⁻¹]	aerobic growth (A700) of SOD null E. coli cells ([4]; 20 μM, glucose minimal medium (M9) plus 5 essential amino acids, JI132, listed as 2)	toxicity in vivo (E. coli) ([4]; FIG. 3)	E1/2 one-electron metal-centered redox-potential [5]
water-soluble	CCCC[n+]1ccccc1-c1c2nc(c(-c3cccc[n+]3CCCC)c3ccc([n-]3)c(-c3cccc[n+]3CCCC)c3nc(c(-c4cccc[n+]4CCCC)c4ccc1[n-]4)C=C3)C=C2.[Mn+3] [compound 5, manganic meso-tetrakis-(N-butylpyridinium-2-yl)porphyrin]	did not show a further decrease in toxicity					
	manganese(III) 5,10,15,20-tetrakis(N-methylpyridyl)porphyrin [MnTM-3-PyP^5+]		greatly decreased	4.1e+06	increase in A700	decreased toxicity	+0.042 V
